Here are results for 19 compounds from patent publication US10799507B2, “5-(7H-pyrrolo[2,3-d]pyrimidin-4-yl)-5-azaspiro[2.5]octane-8-carboxylic acid derivatives as novel JAK kinase inhibitors” (LEO Pharma A/S, priority 2017, dated 2020).

Structures are written as SMILES.

One data set addresses TYK2 (Homo sapiens (Human), UniProt P29597). The data set is described as follows: JAK kinase assay (HTRF), TYK2. Type of data set: biochemical. To be noted: catalytic domain, ATP at Km (13 μM). The essentials: (§1)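 Catalytic-domain human kinases, GST-tagged TYK2 (aa 871-1187) and His-tagged JAK3, phosphorylate 1 μM TK Substrate-Biotin for 20-30 min at RT in 50 mM Hepes pH 7.0, 5 mM MgCl2, ATP at Km (TYK2 13 μM with 50 nM SEB; JAK3 2 μM). Phosphorylation detected by HTRF.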

The nature of data set [1]: in vitro metabolic stability in human liver microsomes. Type of data set: in vitro ADME. To be noted: human, liver microsomes, 0.5 μM compound, 0.5 mg/mL microsomes, NADPH, 40 min, 37° C.; read-out: Human liver microsome Clapp (apparent intrinsic clearance). The protocol:
To assess the in vitro metabolic stability, the compounds (0.5 μM) were incubated in duplicates with human liver microsomes (0.5 mg/mL) in phosphate buffer and NADPH, in 96-well plates for 40 min (37° C.), using a liquid handling robot (Hamilton Microlab Star). Sample aliquots were taken at 0, 5, 10, 20 and 40 min, and dispensed into cold acetonitrile, in order to stop the reactions. The plates were centrifuged for 30 minutes before the samples were analyzed using liquid chromatography coupled to a time-of-flight mass spectrometer (AB Sciex API5600). The compound depletion over time was used to estimate the elimination rate constant, from which the apparent intrinsic clearance, Clapp, was calculated and the values are listed in Table 2.

The next data set concerns the target JAK3 (Homo sapiens (Human), UniProt P52333). The data set is described as follows: JAK kinase assay (HTRF), JAK3. To be noted: catalytic domain, ATP at Km (2 μM). Type of data set: biochemical. The essentials:
as §1

A further data set addresses JAK1 (Homo sapiens (Human), UniProt P23458). Briefly: JAK kinase assay (HTRF), JAK1. Type of data set: biochemical. To be noted: catalytic domain, ATP at Km (7 μM). The essentials:
(§2)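 Catalytic-domain human JAK1 (GST-tagged, aa 850-1154) or His-tagged JAK2, baculovirus-expressed, phosphorylated 1 µM biotinylated TK peptide at Km ATP (JAK1 7 µM, 10 mM MgCl2, 50 nM SEB; JAK2 4 µM, 5 mM MgCl2) in pH 7.0 Hepes, 20-30 min RT. EDTA stop; overnight streptavidin-XL665/cryptate HTRF read.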

Another data set concerns the target JAK2 (Homo sapiens (Human), UniProt O60674). Briefly: JAK kinase assay (HTRF), JAK2. Type of data set: biochemical. To be noted: catalytic domain, ATP at Km (4 μM). In a few lines:
as §2

Sequence of JAK1 (P23458 850-1154): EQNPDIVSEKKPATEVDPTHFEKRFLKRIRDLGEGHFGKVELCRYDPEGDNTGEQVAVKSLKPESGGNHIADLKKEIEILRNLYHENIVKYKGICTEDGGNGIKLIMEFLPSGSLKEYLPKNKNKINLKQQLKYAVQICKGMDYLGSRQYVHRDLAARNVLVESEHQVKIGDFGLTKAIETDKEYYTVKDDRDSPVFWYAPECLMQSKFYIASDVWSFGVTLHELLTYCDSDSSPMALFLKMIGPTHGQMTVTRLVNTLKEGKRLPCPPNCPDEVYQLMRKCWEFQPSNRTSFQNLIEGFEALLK
Sequence of JAK3 (P52333 822-1111): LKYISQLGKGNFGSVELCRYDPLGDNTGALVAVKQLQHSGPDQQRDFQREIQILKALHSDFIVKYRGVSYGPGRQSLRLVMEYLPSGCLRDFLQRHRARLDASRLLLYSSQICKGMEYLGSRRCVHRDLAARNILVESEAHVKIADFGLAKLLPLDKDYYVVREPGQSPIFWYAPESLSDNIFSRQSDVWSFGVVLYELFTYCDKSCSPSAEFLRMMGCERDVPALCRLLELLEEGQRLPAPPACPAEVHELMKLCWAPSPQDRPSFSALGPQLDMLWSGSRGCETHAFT
Sequence of TYK2 (P29597 871-1187): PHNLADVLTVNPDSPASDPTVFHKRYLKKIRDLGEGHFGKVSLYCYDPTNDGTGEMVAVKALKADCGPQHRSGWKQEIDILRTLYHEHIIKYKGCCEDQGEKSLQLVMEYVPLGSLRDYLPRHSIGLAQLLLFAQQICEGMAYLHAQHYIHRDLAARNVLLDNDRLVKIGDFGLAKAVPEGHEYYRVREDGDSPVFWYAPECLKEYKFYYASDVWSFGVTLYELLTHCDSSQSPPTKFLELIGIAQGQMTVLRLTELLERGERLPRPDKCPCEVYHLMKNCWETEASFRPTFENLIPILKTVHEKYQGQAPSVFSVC
Sequence of JAK2 (O60674 849-1124): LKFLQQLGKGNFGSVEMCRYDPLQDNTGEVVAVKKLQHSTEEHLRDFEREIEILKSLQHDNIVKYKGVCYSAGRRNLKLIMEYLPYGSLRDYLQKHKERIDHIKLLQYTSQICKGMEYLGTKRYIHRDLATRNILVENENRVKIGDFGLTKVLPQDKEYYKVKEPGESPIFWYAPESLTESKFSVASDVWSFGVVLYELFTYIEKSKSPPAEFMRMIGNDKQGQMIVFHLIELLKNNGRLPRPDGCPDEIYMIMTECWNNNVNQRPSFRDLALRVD

`O=C(N[C@@H](CO)[C@H](O)c1ccc(F)cn1)[C@H]1CCN(c2ncnc3[nH]ccc23)CC12CC2` (single isomer, unassigned) [Example 30]: the EC50 was determined as 30.5 nM at TYK2, 27.1 nM at JAK3, 1.4 nM on JAK1 and 2.4 nM at JAK2. Also, the CLint scaled at 0.5 μM in data set [1] was determined as 50 mL/min/kg.

Take `O=C(N[C@H](CO)C(=O)OCC1CC1)[C@H]1CCN(c2ncnc3[nH]ccc23)CC12CC2` [Example 91, cyclopropylmethyl (2R)-3-hydroxy-2-[[(8S)-5-(7H-pyrrolo[2,3-d]pyrimidin-4-yl)-5-azaspiro[2.5]octane-8-carbonyl]amino]propanoate]: the concentration for a half-maximal effect (EC50) on TYK2 amounted to 163 nM; on JAK3, 47.3 nM; on JAK1, 8.2 nM; on JAK2, 17.7 nM. Moreover, in data set [1], the CLint scaled at 0.5 μM came to 17 mL/min/kg.

For the compound `Cc1cc([C@@H](O)CNC(=O)[C@H]2CCN(c3ncnc4[nH]ccc34)CC23CC3)ncc1F` (single isomer, unassigned) [Example 110], the EC50 at TYK2 stood at 188 nM; on JAK3 it was 75.3 nM; on JAK1, 11.1 nM; at JAK2 it was 26.3 nM. In data set [1], the CLint scaled at 0.5 μM was 195 mL/min/kg.

`O=C(OCC1(CO)CCCC1)[C@H]1CCN(c2ncnc3[nH]ccc23)CC12CC2` [Example 159, [1-(hydroxymethyl)cyclopentyl]methyl (8S)-5-(7H-pyrrolo[2,3-d]pyrimidin-4-yl)-5-azaspiro[2.5]octane-8-carboxylate]: the EC50 was determined as 5.1 nM at TYK2, 3.1 nM on JAK3, 0.5 nM on JAK1 and 1.3 nM at JAK2. Moreover, in data set [1], the CLint scaled at 0.5 μM is above 200 mL/min/kg.

For `Cc1cc([C@H](O)[C@H](C)NC(=O)[C@H]2CCN(c3ncnc4[nH]ccc34)CC23CC3)ccc1F` [Example 40, (8S)-N-[(1S,2S)-2-(4-fluoro-3-methyl-phenyl)-2-hydroxy-1-methyl-ethyl]-5-(7H-pyrrolo[2,3-d]pyrimidin-4-yl)-5-azaspiro[2.5]octane-8-carboxamide], the EC50 at TYK2 worked out at 40.6 nM; on JAK3, 39.5 nM; at JAK1 it was 2.4 nM; on JAK2, 8.3 nM. Further, the CLint scaled at 0.5 μM in data set [1] is above 200 mL/min/kg.

For the compound `O=C(NC[C@H](O)C1CCC1)[C@H]1CCN(c2ncnc3[nH]ccc23)CC12CC2` [Example 25, (8S)-N-[(2R)-2-cyclobutyl-2-hydroxy-ethyl]-5-(7H-pyrrolo[2,3-d]pyrimidin-4-yl)-5-azaspiro[2.5]octane-8-carboxamide], the EC50 at TYK2 was 11.1 nM; on JAK3 it was 13.6 nM; at JAK1, 1.3 nM; at JAK2, 3.4 nM. The CLint scaled at 0.5 μM in data set [1] amounted to 46 mL/min/kg.

In the case of `O=C(N[C@@H](CO)[C@@H](O)c1ccc(F)cc1)[C@H]1CCN(c2ncnc3[nH]ccc23)CC12CC2` [Example 9, (8S)-N-[(1S,2S)-2-(4-fluorophenyl)-2-hydroxy-1-(hydroxymethyl)ethyl]-5-(7H-pyrrolo[2,3-d]pyrimidin-4-yl)-5-azaspiro[2.5]octane-8-carboxamide], the 50% effective concentration (EC50) at TYK2 worked out at 7.7 nM; on JAK3, 7 nM; at JAK1, 0.7 nM; at JAK2 it was 1.6 nM. Further, the CLint scaled at 0.5 μM in data set [1] was above 200 mL/min/kg.

`O=C(OCC1(CO)CC1)[C@H]1CCN(c2ncnc3[nH]ccc23)CC12CC2` [Example 156, [1-(hydroxymethyl)cyclopropyl]methyl (8S)-5-(7H-pyrrolo[2,3-d]pyrimidin-4-yl)-5-azaspiro[2.5]octane-8-carboxylate]: the 50% effective concentration (EC50) at TYK2 worked out at 30 nM; at JAK3, 20.4 nM; on JAK1, 4 nM; on JAK2, 5.4 nM. In data set [1], the CLint scaled at 0.5 μM is 94 mL/min/kg.

With `O=C(NCC(O)C1CCCCC1)[C@H]1CCN(c2ncnc3[nH]ccc23)CC12CC2` (stereo partly drawn) [Example 2, (8S)-N-(2-cyclohexyl-2-hydroxy-ethyl)-5-(7H-pyrrolo[2,3-d]pyrimidin-4-yl)-5-azaspiro[2.5]octane-8-carboxamide], the EC50 turned out to be 4.6 nM at TYK2, 3.7 nM on JAK3, 0.5 nM on JAK1 and 1.3 nM on JAK2. The CLint scaled at 0.5 μM in data set [1] was above 200 mL/min/kg.

For the compound `C[C@](CO)(NC(=O)[C@H]1CCN(c2ncnc3[nH]ccc23)CC12CC2)c1ccc(C#N)cc1` [Example 27, (8S)-N-[(1S)-1-(4-cyanophenyl)-2-hydroxy-1-methyl-ethyl]-5-(7H-pyrrolo[2,3-d]pyrimidin-4-yl)-5-azaspiro[2.5]octane-8-carboxamide], the EC50 is 44.2 nM at TYK2, 7 nM on JAK3, 1.4 nM at JAK1 and 3.2 nM on JAK2. Also, the CLint scaled at 0.5 μM in data set [1] turned out to be 61 mL/min/kg.

On to `O=C(N[C@H](CO)C(=O)OCC1CC(F)(F)C1)[C@H]1CCN(c2ncnc3[nH]ccc23)CC12CC2` [Example 42, (3,3-difluorocyclobutyl)methyl (2R)-3-hydroxy-2-[[(8S)-5-(7H-pyrrolo[2,3-d]pyrimidin-4-yl)-5-azaspiro[2.5]octane-8-carbonyl]amino]propanoate], for which the EC50 at TYK2 worked out at 51.3 nM; at JAK3, 20.2 nM; at JAK1, 2.7 nM; at JAK2, 6.7 nM. Also, the CLint scaled at 0.5 μM in data set [1] was above 200 mL/min/kg.

As for `N#Cc1ccc(CNC(=O)[C@H]2CCN(c3ncnc4[nH]ccc34)CC23CC3)c(F)c1` [Example 31, (8S)-N-[(4-cyano-2-fluoro-phenyl)methyl]-5-(7H-pyrrolo[2,3-d]pyrimidin-4-yl)-5-azaspiro[2.5]octane-8-carboxamide], the EC50 stood at 63.7 nM at TYK2, 15.6 nM at JAK3, 1.4 nM on JAK1 and 6.4 nM at JAK2. For the same compound, the CLint scaled at 0.5 μM in data set [1] was 166 mL/min/kg.

Turning to `N#Cc1ccc(CNC(=O)C2CCN(c3ncnc4[nH]ccc34)CC23CC3)nc1` (stereo not shown) [Example 76, N-[(5-cyano-2-pyridyl)methyl]-5-(7H-pyrrolo[2,3-d]pyrimidin-4-yl)-5-azaspiro[2.5]octane-8-carboxamide], in data set [1], the CLint scaled at 0.5 μM is 139 mL/min/kg. Besides, the EC50 on JAK3 was 53.6 nM; at JAK1 it was 6.2 nM; on JAK2, 43.3 nM.

With `O=C(OCC1(CO)CCCCC1)[C@H]1CCN(c2ncnc3[nH]ccc23)CC12CC2` [Example 161, [1-(hydroxymethyl)cyclohexyl]methyl (8S)-5-(7H-pyrrolo[2,3-d]pyrimidin-4-yl)-5-azaspiro[2.5]octane-8-carboxylate], the CLint scaled at 0.5 μM in data set [1] is above 200 mL/min/kg.

Turning to `COc1cccc(CNC(=O)C2CCN(c3ncnc4[nH]ccc34)CC23CC3)c1` (stereo not shown) [Example 119, N-[(3-methoxyphenyl)methyl]-5-(7H-pyrrolo[2,3-d]pyrimidin-4-yl)-5-azaspiro[2.5]octane-8-carboxamide], the EC50 on TYK2 amounted to 539 nM; on JAK3, 71.1 nM; at JAK1, 13.4 nM; on JAK2, 36.8 nM.

For the compound `O=C(N[C@@H](CO)C1CCC1)[C@H]1CCN(c2ncnc3[nH]ccc23)CC12CC2` [Example 148, (8S)-N-[(1R)-1-cyclobutyl-2-hydroxy-ethyl]-5-(7H-pyrrolo[2,3-d]pyrimidin-4-yl)-5-azaspiro[2.5]octane-8-carboxamide], the EC50 turned out to be 1080 nM on TYK2, 163 nM on JAK3, 70.6 nM on JAK1 and 139 nM on JAK2.

For the compound `C[C@H](NC(=O)C1CCN(c2ncnc3[nH]ccc23)CC12CC2)c1ccccc1` (stereo partly drawn) [Example 99, N-[(1S)-1-phenylethyl]-5-(7H-pyrrolo[2,3-d]pyrimidin-4-yl)-5-azaspiro[2.5]octane-8-carboxamide], the EC50 stood at 399 nM at TYK2, 31.1 nM at JAK3, 9.1 nM at JAK1 and 11.2 nM at JAK2.

Regarding `O=C(NCC1CCC1)C1CCN(c2ncnc3[nH]ccc23)CC12CC2` (stereo not shown) [Example 115, N-(cyclobutylmethyl)-5-(7H-pyrrolo[2,3-d]pyrimidin-4-yl)-5-azaspiro[2.5]octane-8-carboxamide], the EC50 on TYK2 was found to be 364 nM; at JAK3, 92.4 nM; on JAK1, 12.2 nM; on JAK2 it was 23.6 nM.

Take `N#C[C@H]1CC[C@H](CNC(=O)C2CCN(c3ncnc4[nH]ccc34)CC23CC3)C1` (stereo partly drawn) [Example 83, N-[[(1S,3S)-3-cyanocyclopentyl]methyl]-5-(7H-pyrrolo[2,3-d]pyrimidin-4-yl)-5-azaspiro[2.5]octane-8-carboxamide]: the EC50 at TYK2 is 390 nM; on JAK3, 44.3 nM; at JAK1, 6.8 nM; on JAK2, 22.6 nM.
